Source: ChEMBL document CHEMBL4706528, “The design, synthesis and anti-tumor mechanism study of new androgen receptor degrader” (Eur J Med Chem, 2020)

Columns and labels:
LNCaP = experiment: Antiproliferative activity against androgen-positive human LNCaP cells assessed as cell growth inhibition measured after 72 hrs by SRB assay; format: functional, cell-based
[1] = target: T1, Androgen receptor (Homo sapiens) (UniProt P10275); experiment: Binding affinity to androgen receptor LBD (unknown origin) at 10 uM incubated for 4 hrs under dark by fluorescence polarization based binding assay relative to R1881
T1 sequence (whole entry): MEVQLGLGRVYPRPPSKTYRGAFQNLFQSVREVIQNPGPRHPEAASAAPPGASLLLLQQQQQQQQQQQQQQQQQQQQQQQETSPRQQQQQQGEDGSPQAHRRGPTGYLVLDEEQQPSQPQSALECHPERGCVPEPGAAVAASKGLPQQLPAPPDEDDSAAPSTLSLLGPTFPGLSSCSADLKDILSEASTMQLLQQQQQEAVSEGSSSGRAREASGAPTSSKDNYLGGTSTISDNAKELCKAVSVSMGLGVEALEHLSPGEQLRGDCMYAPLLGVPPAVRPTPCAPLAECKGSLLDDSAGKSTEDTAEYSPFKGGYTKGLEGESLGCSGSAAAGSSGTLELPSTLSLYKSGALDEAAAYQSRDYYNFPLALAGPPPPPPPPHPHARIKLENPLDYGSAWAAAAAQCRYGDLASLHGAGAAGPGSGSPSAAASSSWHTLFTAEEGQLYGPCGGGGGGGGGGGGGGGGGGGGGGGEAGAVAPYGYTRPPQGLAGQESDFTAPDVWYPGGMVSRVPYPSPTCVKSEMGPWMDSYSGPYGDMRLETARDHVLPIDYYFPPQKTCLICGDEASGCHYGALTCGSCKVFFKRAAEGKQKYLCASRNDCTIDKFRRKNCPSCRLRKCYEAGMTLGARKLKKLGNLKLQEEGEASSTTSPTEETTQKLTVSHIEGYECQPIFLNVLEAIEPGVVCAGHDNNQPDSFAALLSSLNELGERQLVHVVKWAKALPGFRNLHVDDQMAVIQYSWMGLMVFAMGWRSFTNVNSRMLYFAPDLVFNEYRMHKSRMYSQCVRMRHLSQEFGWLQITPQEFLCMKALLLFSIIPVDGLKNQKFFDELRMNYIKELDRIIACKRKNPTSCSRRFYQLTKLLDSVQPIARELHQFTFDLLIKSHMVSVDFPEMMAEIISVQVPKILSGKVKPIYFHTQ

LNCaP C4-2B = experiment: Antiproliferative activity against androgen-sensitive positive human LNCaP C4-2B cells assessed as cell growth inhibition measured after 72 hrs by SRB assay; format: functional, cell-based
[2] = Cytotoxicity against androgen-negative human WPMY-1 cells assessed as cell growth inhibition measured after 72 hrs by SRB assay; format: cell-based; conditions: WPMY-1, 72 h
PC-3 = experiment: Antiproliferative activity against androgen-negative human PC-3 cells assessed as cell growth inhibition measured after 72 hrs by SRB assay; format: functional, cell-based; conditions: PC-3, 72 h

SMILES | IC50 (LNCaP) | Activity [1] | IC50 (LNCaP C4-2B) | IC50 [2] | IC50 (PC-3)
CC1(C)C(=O)N(c2ccc(C#N)c(C(F)(F)F)c2)C(=S)N1Cc1ccc(-n2cc(COCCOCCOCCOCCOC(=O)CC34CC5CC(CC(C5)C3)C4)nn2)cc1 | > 80 µM | 39.9% | > 80 µM | > 80 µM | > 80 µM
CC1(C)C(=O)N(c2ccc(C#N)c(C(F)(F)F)c2)C(=O)N1CCCn1cc(COCCOCCOC(=O)CC23CC4CC(CC(C4)C2)C3)nn1 | 7.28 µM | 41.9% | 12.3 µM | > 80 µM | > 80 µM
CC1(C)C(=O)N(c2ccc(C#N)c(C(F)(F)F)c2)C(=S)N1Cc1ccc(OCCOCCOC(=O)CC23CC4CC(CC(C4)C2)C3)cc1 | > 80 µM | 34.2% | > 80 µM | > 80 µM | > 80 µM
CC1(C)C(=O)N(c2ccc(C#N)c(C(F)(F)F)c2)C(=O)N1Cc1ccc(-n2cc(COCCOCCOCCOCCOC(=O)CC34CC5CC(CC(C5)C3)C4)nn2)cc1 | > 80 µM | 51.8% | > 80 µM | > 80 µM | > 80 µM
CC1(C)C(=O)N(c2ccc(C#N)c(C(F)(F)F)c2)C(=S)N1Cc1cn(CCOCCOCCOCCOC(=O)CC23CC4CC(CC(C4)C2)C3)nn1 | 6.31 µM | 69.1% | 11.2 µM | > 80 µM | > 80 µM
CC1(C)C(=O)N(c2ccc(C#N)c(C(F)(F)F)c2)C(=O)N1CCCn1cc(COCCOCCOCCOCCOC(=O)CC23CC4CC(CC(C4)C2)C3)nn1 | 9.96 µM | 47% | 11.7 µM | > 80 µM | > 80 µM
CC1(C)C(=O)N(c2ccc(C#N)c(C(F)(F)F)c2)C(=S)N1Cc1ccc(-n2cc(COCCCOC(=O)CC34CC5CC(CC(C5)C3)C4)nn2)cc1 | > 80 µM | 26% | > 80 µM | > 80 µM | > 80 µM
CC1(C)C(=O)N(c2ccc(C#N)c(C(F)(F)F)c2)C(=O)N1CCCn1cc(COCCCOC(=O)CC23CC4CC(CC(C4)C2)C3)nn1 | 4.06 µM | 24.3% | 11.2 µM | > 80 µM | > 80 µM
CC1(C)C(=O)N(c2ccc(C#N)c(C(F)(F)F)c2)C(=S)N1CCCCCCn1cc(COCCOCCOC(=O)CC23CC4CC(CC(C4)C2)C3)nn1 | 33.9 µM | 32.3% | > 80 µM | > 80 µM | > 80 µM
CC1(C)C(=O)N(c2ccc(C#N)c(C(F)(F)F)c2)C(=O)N1Cc1ccc(-n2cc(COCCCOC(=O)CC34CC5CC(CC(C5)C3)C4)nn2)cc1 | > 80 µM | 19.1% | > 80 µM | > 80 µM | > 80 µM
CC1(C)C(=O)N(c2ccc(C#N)c(C(F)(F)F)c2)C(=S)N1Cc1cn(CCOCCOC(=O)CC23CC4CC(CC(C4)C2)C3)nn1 | > 80 µM | 22.2% | 17.4 µM | > 80 µM | > 80 µM
CC1(C)C(=O)N(c2ccc(C#N)c(C(F)(F)F)c2)C(=S)N1CCCn1cc(COCCCOC(=O)CC23CC4CC(CC(C4)C2)C3)nn1 | 6.64 µM | 31.6% | 10.6 µM | > 80 µM | > 80 µM
CC1(C)C(=O)N(c2ccc(C#N)c(C(F)(F)F)c2)C(=O)N1CCCn1cc(COCCOCCOCCOC(=O)CC23CC4CC(CC(C4)C2)C3)nn1 | 6.66 µM | 33.9% | 9.95 µM | > 80 µM | > 80 µM
CC1(C)C(=O)N(c2ccc(C#N)c(C(F)(F)F)c2)C(=O)N1Cc1cn(CCOCCOCCOCCOC(=O)CC23CC4CC(CC(C4)C2)C3)nn1 | 6.87 µM | 29.8% | 7.76 µM | > 80 µM | > 80 µM
CC1(C)C(=O)N(c2ccc(C#N)c(C(F)(F)F)c2)C(=O)N1Cc1ccc(-n2cc(COCCOCCOC(=O)CC34CC5CC(CC(C5)C3)C4)nn2)cc1 | > 80 µM | 36.7% | > 80 µM | > 80 µM | > 80 µM
CC1(C)C(=O)N(c2ccc(C#N)c(C(F)(F)F)c2)C(=S)N1CCCn1cc(COCCOCCOCCOCCOCCOC(=O)CC23CC4CC(CC(C4)C2)C3)nn1 | 6.92 µM | 33.7% | 6.61 µM | > 80 µM | > 80 µM
CC1(C)C(=O)N(c2ccc(C#N)c(C(F)(F)F)c2)C(=S)N1Cc1ccc(OCCOCCOCCOCCOC(=O)CC23CC4CC(CC(C4)C2)C3)cc1 | > 80 µM | 35.8% | > 80 µM | > 80 µM | > 80 µM
CC1(C)C(=O)N(c2ccc(C#N)c(C(F)(F)F)c2)C(=S)N1Cc1ccc(OCCCOC(=O)CC23CC4CC(CC(C4)C2)C3)cc1 | > 80 µM | 37.9% | > 80 µM | > 80 µM | > 80 µM
CC1(C)C(=O)N(c2ccc(C#N)c(C(F)(F)F)c2)C(=S)N1Cc1ccc(-n2cc(COCCOCCOCCOC(=O)CC34CC5CC(CC(C5)C3)C4)nn2)cc1 | > 80 µM | 25.3% | > 80 µM | > 80 µM | > 80 µM
CC1(C)C(=O)N(c2ccc(C#N)c(C(F)(F)F)c2)C(=S)N1Cc1ccc(-n2cc(COCCOCCOC(=O)CC34CC5CC(CC(C5)C3)C4)nn2)cc1 | > 80 µM | 35.8% | > 80 µM | > 80 µM | > 80 µM
CC1(C)C(=O)N(c2ccc(C#N)c(C(F)(F)F)c2)C(=S)N1Cc1ccc(-n2cc(COCCOCCOCCOCCOCCOC(=O)CC34CC5CC(CC(C5)C3)C4)nn2)cc1 | > 80 µM | 39.1% | 12.2 µM | > 80 µM | > 80 µM
CC1(C)C(=O)N(c2ccc(C#N)c(C(F)(F)F)c2)C(=O)N1Cc1ccc(OCCOCCOC(=O)CC23CC4CC(CC(C4)C2)C3)cc1 | > 80 µM | 26.3% | > 80 µM | > 80 µM | > 80 µM
CC1(C)C(=O)N(c2ccc(C#N)c(C(F)(F)F)c2)C(=S)N1Cc1ccc(OCCOCCOCCOC(=O)CC23CC4CC(CC(C4)C2)C3)cc1 | > 80 µM | 32% | 14.6 µM | > 80 µM | > 80 µM
CC1(C)C(=O)N(c2ccc(C#N)c(C(F)(F)F)c2)C(=S)N1Cc1cn(CCCOC(=O)CC23CC4CC(CC(C4)C2)C3)nn1 | > 80 µM | 52.8% | > 80 µM | > 80 µM | > 80 µM
CC1(C)C(=O)N(c2ccc(C#N)c(C(F)(F)F)c2)C(=S)N1Cc1cn(CCOCCOCCOC(=O)CC23CC4CC(CC(C4)C2)C3)nn1 | 9.13 µM | 35.1% | > 80 µM | > 80 µM | > 80 µM
CC1(C)C(=O)N(c2ccc(C#N)c(C(F)(F)F)c2)C(=O)N1Cc1cn(CCOCCOC(=O)CC23CC4CC(CC(C4)C2)C3)nn1 | > 80 µM | 52.8% | 11.9 µM | > 80 µM | > 80 µM
CC1(C)C(=O)N(c2ccc(C#N)c(C(F)(F)F)c2)C(=O)N1Cc1cn(CCOCCOCCOC(=O)CC23CC4CC(CC(C4)C2)C3)nn1 | 7.7 µM | 46.7% | 8.34 µM | > 80 µM | > 80 µM
CC1(C)C(=O)N(c2ccc(C#N)c(C(F)(F)F)c2)C(=S)N1CCCn1cc(COCCOCCOCCOCCOC(=O)CC23CC4CC(CC(C4)C2)C3)nn1 | 4.25 µM | 69.3% | 7.64 µM | > 80 µM | > 80 µM
CC1(C)C(=O)N(c2ccc(C#N)c(C(F)(F)F)c2)C(=O)N1Cc1cn(CCCOC(=O)CC23CC4CC(CC(C4)C2)C3)nn1 | > 80 µM | 43.4% | > 80 µM | > 80 µM | > 80 µM
CC1(C)C(=O)N(c2ccc(C#N)c(C(F)(F)F)c2)C(=O)N1Cc1ccc(-n2cc(COCCOCCOCCOC(=O)CC34CC5CC(CC(C5)C3)C4)nn2)cc1 | > 80 µM | 20.1% | > 80 µM | > 80 µM | > 80 µM
